One experiment has as its target Tumor necrosis factor (Homo sapiens, UniProt P01375). Briefly: TNFa-triggered NF-kB activation inhibitors, SAR follow-up, cell-based, revised (AID 2337). It counts as functional.
In experiment [1] the target is T1, Nucleotide-binding oligomerization domain-containing protein 1 (Homo sapiens, UniProt Q9Y239).
T1 sequence (Q9Y239 whole entry): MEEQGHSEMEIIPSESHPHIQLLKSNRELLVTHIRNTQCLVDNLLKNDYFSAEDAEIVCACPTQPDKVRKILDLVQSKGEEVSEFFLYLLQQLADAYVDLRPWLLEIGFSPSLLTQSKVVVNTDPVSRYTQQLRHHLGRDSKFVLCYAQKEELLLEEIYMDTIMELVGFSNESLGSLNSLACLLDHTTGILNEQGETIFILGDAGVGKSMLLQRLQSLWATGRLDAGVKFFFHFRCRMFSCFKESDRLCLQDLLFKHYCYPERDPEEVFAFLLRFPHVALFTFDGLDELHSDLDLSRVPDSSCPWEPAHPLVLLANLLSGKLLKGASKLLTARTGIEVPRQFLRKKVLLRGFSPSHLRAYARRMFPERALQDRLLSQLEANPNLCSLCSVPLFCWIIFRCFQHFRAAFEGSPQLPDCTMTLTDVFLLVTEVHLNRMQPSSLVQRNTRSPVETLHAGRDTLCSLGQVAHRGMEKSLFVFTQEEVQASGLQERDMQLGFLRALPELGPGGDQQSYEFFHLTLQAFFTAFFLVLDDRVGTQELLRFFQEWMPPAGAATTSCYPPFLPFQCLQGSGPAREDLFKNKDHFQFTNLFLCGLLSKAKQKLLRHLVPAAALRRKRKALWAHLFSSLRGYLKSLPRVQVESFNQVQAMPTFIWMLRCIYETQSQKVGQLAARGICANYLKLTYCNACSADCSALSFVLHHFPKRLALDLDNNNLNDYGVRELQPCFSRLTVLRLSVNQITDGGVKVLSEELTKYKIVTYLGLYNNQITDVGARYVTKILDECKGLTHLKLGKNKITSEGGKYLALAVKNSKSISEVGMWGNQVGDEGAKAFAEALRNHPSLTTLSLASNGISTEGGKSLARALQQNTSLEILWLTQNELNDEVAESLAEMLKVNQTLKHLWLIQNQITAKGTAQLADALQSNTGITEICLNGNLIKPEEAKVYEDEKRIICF
As to the kind of experiment: NOD1 signaling inhibitors, SAR follow-up, revised (AID 2333). It counts as functional.

Experiment [2] concerns HEK293. Briefly: cells. The following applies: Homo sapiens.
Experiment [3] deals with HEK293. As to the kind of experiment: cytotoxicity in HEK293T NF-kB-Luc cells, SAR follow-up, cytotoxicity control for NF-kB activator project, cell-based, resazurin fluorescence (AID 493251). The class given is functional. The following applies: Homo sapiens.
Experiment [4] addresses T2, G-protein coupled receptor 55 (Homo sapiens, UniProt Q9Y2T6). As to the kind of experiment: GPR55 antagonists, SAR follow-up, counter-screen for GPR35 antagonist project, imaging, image-based (AID 2397). It counts as functional.
The target of experiment [5] is Beta-2 adrenergic receptor (Homo sapiens, UniProt P07550). Briefly: beta2AR agonists driving receptor internalization, dose response, cell-based, FAP fluorogen, flow cytometry, cherry pick 1 (AID 588763). It counts as functional. Background: Flow cytometry measures light scatter and fluorescence of single cells or particles in a stream.
For experiment [6], the target named is T3, Mannose-6-phosphate isomerase (Homo sapiens, UniProt P34949).
T3 sequence (P34949 whole entry): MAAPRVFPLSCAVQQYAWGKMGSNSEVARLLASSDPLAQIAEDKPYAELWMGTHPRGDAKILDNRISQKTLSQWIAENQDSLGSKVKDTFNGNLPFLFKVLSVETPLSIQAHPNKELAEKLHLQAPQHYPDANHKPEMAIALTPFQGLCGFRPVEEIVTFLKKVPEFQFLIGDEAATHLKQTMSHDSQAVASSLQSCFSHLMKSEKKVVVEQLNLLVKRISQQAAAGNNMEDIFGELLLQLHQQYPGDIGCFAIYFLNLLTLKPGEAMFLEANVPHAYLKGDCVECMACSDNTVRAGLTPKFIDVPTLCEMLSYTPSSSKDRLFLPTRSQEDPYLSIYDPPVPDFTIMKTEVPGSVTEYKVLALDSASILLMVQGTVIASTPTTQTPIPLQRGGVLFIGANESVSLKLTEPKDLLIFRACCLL
As to the kind of experiment: PMI enzyme inhibitors, confirmation, biochemical, fluorescence intensity (AID 1535).

In experiment [7] the target is T4, Rac GTPase-activating protein 1 (Homo sapiens, UniProt Q9H0H5).
T4 sequence (Q9H0H5 whole entry): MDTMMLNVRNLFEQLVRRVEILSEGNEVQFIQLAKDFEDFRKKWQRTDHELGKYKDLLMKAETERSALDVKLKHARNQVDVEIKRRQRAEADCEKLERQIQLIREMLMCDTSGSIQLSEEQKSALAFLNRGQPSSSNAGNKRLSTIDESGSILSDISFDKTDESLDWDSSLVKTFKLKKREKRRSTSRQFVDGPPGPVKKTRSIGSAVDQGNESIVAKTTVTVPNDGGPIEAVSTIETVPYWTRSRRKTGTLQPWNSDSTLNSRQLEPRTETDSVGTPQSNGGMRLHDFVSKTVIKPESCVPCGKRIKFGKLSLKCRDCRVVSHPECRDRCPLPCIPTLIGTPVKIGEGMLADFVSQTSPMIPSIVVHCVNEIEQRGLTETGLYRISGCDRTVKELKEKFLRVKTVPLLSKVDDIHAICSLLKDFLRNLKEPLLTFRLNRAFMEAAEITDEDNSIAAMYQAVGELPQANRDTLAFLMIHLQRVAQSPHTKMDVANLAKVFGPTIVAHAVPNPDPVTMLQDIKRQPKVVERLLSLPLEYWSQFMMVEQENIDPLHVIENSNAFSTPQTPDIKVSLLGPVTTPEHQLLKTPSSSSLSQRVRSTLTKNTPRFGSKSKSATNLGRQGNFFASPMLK
Briefly: MgcRacGAP GTPase-activating activity inhibitors, confirmation, biochemical, ADP Hunter fluorescence, primary and confirmatory (AID 624330). It counts as functional.

In experiment [8] the test system is BJ. Briefly: cells. The class given is functional, cell-based. The following applies: Homo sapiens.
Experiment [9] concerns the target T2, G-protein coupled receptor 55. Briefly: GPR55 agonists via beta-arrestin recruitment, primary screen, imaging, U2OS cells, beta-arrestin-GFP redistribution (AID 1961). The class given is functional.
In experiment [10] the test system is BJ. As to the kind of experiment: cytotoxicity toward BJ-TERT fibroblasts, dose response, cell-based, RAS-independent, luminescence (AID 1933). It counts as functional. The following applies: Homo sapiens.
The nature of experiment [11]: cytotoxicity toward DRD oncogenic fibroblasts, dose response, cell-based, non-viral oncogenic, luminescence (AID 1934). It counts as functional. The following applies: Homo sapiens.
In experiment [12] the target is C-C chemokine receptor type 6 (Homo sapiens, UniProt P51684). Briefly: CCR6 receptor antagonists, dose response, cell-based, luminescent beta-arrestin readout (AID 504728). It counts as functional.
Another experiment deals with Beta-galactosidase (Escherichia coli, UniProt Q8VNN2). As to the kind of experiment: beta-galactosidase enzyme inhibitors and activators, dose response, artefact control for CCR6 antagonist project, biochemical, E. coli enzyme, set 3 (AID 504712). It counts as functional.
The nature of experiment [13]: HeLa cell cytotoxicity, dose response, cytotoxicity control for MgcRacGAP inhibitor project (AID 624300). The class given is functional.
In experiment [14] the test system is BJ. As to the kind of experiment: cytotoxicity toward Ras-transformed BJeLR fibroblasts, dose response, cell-based, alamar blue fluorescence, cherrypicked samples (AID 2631).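 Also: confirmatory dose-response assay in RAS-dependent BJ fibroblasts engineered with TERT, LT and ST, with cytotoxicity read by fluorescence.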 The following applies: Homo sapiens. The class given is functional. For orientation: The colour change of resazurin is a common sign of viable cells or microbes.
Experiment [15] can be described thus: Fluorescence-based cell-based high throughput dose response assay for inhibitors of the interaction of nucleotide-binding oligomerization domain containing 2 (NOD2) and the receptor-interacting serine-threonine kinase 2 (RIPK2). It counts as functional. The following applies: Homo sapiens.
The subject of another experiment is INS1. Briefly: beta cell apoptosis inhibitors, cytokine rescue, dose response, luminescence, retest (AID 449756).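 Also: cell death triggered by IL-1 beta plus TNF-alpha plus IFN-gamma mixture; protective hits raise ATP signal compared with cytokine alone wells.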 The class given is functional, cell-based. The following applies: Rattus norvegicus.
The next experiment addresses Beta Lactamase (Pseudomonas aeruginosa, UniProt Q932Y6). Briefly: beta-lactamase reporter inhibitor potency, dose response, artefact control for NOD2-RIPK2 interaction inhibitor project, BLA reporter cells, FRET fluorescence (AID 651552). The class given is functional, cell-based.
The nature of experiment [16]: growth suppression of beta-catenin-knockout colon cells, dose response, cell-based, HCT116, human colon tumor (AID 1045).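 Also: HCT116 colon tumor cells with beta catenin knocked out; cells exposed to compound for 60 hours.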 The class given is functional.
Experiment [17] can be described thus: growth suppression of PTEN-null colon cells, dose response, cell-based, HCT116 PTEN knockout (AID 1047).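 Also: HCT116 colon tumor cells with PTEN knocked out; cells exposed to compound for 60 hours before readout; potency for loss of cell viability measured by luminescence.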 It counts as functional.
For another experiment, the target named is Trypsin (Sus scrofa, UniProt P00761). Briefly: porcine trypsin inhibitors, dose response, selectivity assay for Rce1 protease inhibitor project, biochemical, quenched peptide fluorescence, cherry-pick (AID 488789).
The target of experiment [18] is T5, Polyadenylate-binding protein 1 (Homo sapiens, UniProt P11940). Briefly: PABP1 MLLE–PAM2 interaction inhibitors, dose response, miRNA deadenylation inhibitor project, biochemical, fluorescence polarization, Cy5-PAM2 peptide, secondary (AID 602260). The following applies: read-out: IC50_Mean. The class given is functional. (Fluorescence polarisation rises when a labelled molecule tumbles more slowly, as on binding a larger partner.)

The target of experiment [19] is T5, Polyadenylate-binding protein 1. Briefly: PABP1 MLLE–PAM2 binding inhibitor potency, dose response, biochemical, fluorescence polarization, FITC-PAM2 peptide (AID 602259). The class given is functional. The following applies: read-out: IC50_Mean.
Experiment [20] concerns the target CAAX prenyl protease 2 (Homo sapiens, UniProt Q9Y256). As to the kind of experiment: human Rce1 protease inhibitors, dose response, biochemical, yeast membranes, quenched-peptide fluorescence, cherry-pick (AID 588849).
Experiment [21] concerns the target T6, CAAX prenyl protease 2 (Saccharomyces cerevisiae S288c, UniProt Q03530).
T6 sequence (Q03530 whole entry): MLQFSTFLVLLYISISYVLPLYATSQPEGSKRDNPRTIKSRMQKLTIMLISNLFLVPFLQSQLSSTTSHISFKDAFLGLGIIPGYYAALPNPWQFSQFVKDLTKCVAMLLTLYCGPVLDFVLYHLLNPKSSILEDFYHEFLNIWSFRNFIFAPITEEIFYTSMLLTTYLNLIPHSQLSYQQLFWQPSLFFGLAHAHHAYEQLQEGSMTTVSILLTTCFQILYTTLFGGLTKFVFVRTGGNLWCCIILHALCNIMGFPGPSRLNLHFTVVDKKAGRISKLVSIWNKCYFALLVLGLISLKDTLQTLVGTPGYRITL
It counts as biochemical.

Each structure is given as a SMILES string. Activity calls are given as the source filed them.

T2 sequence (Q9Y2T6 whole entry): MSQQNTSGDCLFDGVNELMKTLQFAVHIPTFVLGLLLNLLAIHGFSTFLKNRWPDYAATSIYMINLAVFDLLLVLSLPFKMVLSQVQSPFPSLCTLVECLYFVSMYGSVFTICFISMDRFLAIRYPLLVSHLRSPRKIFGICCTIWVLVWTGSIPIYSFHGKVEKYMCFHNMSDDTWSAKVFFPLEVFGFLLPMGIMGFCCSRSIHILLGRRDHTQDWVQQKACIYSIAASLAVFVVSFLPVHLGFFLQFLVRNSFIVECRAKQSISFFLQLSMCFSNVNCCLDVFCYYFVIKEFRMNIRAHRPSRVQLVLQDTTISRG
Sequence of Tumor necrosis factor (P01375 whole entry, the tested form may be a part): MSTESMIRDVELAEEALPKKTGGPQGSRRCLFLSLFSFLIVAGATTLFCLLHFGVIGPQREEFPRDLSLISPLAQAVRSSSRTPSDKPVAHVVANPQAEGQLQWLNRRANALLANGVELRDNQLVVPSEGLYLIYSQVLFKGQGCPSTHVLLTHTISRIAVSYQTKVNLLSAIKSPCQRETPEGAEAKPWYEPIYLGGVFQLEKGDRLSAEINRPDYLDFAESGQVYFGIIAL
T5 sequence (P11940 whole entry): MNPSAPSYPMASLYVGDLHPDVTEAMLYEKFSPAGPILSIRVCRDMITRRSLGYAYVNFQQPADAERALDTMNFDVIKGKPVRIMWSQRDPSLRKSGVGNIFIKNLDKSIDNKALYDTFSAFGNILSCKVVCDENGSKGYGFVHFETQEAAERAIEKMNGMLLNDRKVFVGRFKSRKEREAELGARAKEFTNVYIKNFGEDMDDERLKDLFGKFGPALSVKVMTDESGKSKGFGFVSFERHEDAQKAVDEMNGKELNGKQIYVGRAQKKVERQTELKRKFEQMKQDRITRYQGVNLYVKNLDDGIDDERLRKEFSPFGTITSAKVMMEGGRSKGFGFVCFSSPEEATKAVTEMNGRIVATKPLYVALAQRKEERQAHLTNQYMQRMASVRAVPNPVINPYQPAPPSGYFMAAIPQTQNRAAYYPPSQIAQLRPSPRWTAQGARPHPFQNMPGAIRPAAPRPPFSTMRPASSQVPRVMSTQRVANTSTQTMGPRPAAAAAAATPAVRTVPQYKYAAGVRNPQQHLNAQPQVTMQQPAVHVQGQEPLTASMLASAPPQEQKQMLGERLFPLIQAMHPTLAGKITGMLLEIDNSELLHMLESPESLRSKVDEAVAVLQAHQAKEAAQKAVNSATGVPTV
Sequence of C-C chemokine receptor type 6 (P51684 whole entry): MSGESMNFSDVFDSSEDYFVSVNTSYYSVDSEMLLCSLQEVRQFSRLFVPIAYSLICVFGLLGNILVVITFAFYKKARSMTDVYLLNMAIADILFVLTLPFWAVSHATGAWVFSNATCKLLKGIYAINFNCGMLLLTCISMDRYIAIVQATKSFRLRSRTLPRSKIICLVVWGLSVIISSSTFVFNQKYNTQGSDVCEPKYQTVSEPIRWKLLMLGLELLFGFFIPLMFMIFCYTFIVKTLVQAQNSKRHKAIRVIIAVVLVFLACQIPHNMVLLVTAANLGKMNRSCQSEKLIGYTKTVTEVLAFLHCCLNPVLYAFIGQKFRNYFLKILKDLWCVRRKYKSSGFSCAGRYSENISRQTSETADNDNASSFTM
Sequence of Beta-2 adrenergic receptor (P07550 whole entry): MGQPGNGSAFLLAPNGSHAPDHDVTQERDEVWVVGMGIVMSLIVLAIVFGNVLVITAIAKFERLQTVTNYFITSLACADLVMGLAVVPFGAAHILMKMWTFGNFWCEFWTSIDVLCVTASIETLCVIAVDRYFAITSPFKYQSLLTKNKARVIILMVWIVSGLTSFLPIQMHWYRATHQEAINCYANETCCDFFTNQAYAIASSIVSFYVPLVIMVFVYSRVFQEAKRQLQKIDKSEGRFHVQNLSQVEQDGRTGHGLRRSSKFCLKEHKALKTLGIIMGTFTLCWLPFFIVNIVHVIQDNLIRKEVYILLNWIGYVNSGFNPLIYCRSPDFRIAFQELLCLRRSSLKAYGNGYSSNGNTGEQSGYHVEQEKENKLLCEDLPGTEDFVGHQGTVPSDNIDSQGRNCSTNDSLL
Sequence of Beta-galactosidase (Q8VNN2 whole entry): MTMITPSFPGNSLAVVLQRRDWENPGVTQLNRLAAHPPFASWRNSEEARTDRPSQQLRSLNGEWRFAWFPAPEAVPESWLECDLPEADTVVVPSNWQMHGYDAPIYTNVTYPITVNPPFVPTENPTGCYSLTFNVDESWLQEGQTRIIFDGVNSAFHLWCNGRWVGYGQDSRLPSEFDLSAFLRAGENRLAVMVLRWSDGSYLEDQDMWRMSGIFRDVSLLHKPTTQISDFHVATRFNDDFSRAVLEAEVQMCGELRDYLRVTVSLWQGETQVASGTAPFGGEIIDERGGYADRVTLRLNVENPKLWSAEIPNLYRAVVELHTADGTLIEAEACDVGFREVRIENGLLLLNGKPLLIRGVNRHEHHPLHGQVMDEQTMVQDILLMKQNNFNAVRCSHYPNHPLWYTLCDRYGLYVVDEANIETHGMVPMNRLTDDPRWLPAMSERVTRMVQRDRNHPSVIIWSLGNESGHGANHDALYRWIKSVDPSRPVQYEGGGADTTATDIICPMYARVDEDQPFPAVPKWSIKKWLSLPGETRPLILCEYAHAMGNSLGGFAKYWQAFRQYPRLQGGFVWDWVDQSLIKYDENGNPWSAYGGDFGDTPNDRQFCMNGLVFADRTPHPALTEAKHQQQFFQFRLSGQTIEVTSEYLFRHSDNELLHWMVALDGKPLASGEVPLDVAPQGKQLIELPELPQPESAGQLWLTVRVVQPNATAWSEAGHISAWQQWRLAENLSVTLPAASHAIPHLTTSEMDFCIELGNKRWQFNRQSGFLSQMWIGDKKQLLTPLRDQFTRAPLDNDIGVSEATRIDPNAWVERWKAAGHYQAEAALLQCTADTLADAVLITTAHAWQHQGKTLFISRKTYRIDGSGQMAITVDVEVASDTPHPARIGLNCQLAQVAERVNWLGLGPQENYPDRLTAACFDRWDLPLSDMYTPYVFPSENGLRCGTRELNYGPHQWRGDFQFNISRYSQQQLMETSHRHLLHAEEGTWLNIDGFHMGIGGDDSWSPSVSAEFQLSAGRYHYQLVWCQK
Sequence of Beta Lactamase (Q932Y6 whole entry): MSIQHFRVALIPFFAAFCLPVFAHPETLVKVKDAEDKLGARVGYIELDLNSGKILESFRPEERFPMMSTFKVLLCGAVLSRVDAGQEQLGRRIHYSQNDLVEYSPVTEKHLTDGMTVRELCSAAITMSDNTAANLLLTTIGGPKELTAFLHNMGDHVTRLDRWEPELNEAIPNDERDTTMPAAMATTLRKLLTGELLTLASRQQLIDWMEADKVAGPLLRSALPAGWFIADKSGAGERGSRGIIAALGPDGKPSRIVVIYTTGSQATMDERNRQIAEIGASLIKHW
Sequence of Trypsin (P00761 whole entry): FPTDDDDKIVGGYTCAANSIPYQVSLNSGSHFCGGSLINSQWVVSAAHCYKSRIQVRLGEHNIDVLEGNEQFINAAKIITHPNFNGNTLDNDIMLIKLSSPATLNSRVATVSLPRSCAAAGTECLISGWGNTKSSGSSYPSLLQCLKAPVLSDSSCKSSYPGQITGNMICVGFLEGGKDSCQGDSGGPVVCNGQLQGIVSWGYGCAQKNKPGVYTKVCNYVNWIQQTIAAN
Sequence of CAAX prenyl protease 2 (Homo sapiens, UniProt Q9Y256) (Q9Y256 whole entry): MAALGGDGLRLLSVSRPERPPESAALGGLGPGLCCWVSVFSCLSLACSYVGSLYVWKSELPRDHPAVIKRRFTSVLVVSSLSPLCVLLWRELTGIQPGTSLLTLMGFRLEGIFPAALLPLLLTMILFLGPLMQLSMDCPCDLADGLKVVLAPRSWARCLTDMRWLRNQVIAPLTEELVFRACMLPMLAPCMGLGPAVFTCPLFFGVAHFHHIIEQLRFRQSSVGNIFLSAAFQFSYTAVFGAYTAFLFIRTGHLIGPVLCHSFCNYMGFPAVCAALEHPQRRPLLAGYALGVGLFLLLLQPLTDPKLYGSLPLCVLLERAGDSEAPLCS

As for `CCc1cc(C(=O)NC2CCCc3c2cnn3-c2ccc(F)cc2F)no1` (stereo not given), the IC50 at Tumor necrosis factor was > 20 µM (inactive); in experiment [1], 10.4 µM (active); in the experiment on HEK293 [2], > 20 µM (inactive).

`O=C(O)CCc1nc(-c2ccccc2)no1`: the IC50 in the experiment with HEK293 [3] is > 80 µM (inactive).

With `COC(=O)CSc1nc2ccc(NC(=O)c3ccccc3C(=O)N3CCOCC3)cc2s1`, the IC50 in experiment [4] is > 32 µM (inactive).

What is called EC50 is the concentration at which the effect is half-maximal. Turning to `CCCCN(CCCC)c1nc2ccccc2nc1NS(=O)(=O)c1ccc(NC(C)=O)cc1`, in experiment [5], the EC50 was 20.3 nM (active).

For `Clc1nss/c1=N\c1nc2ccccc2[nH]1`, the IC50 in [6] was 98.1 µM (active).

`CCOC(=O)c1ccc(NC(=O)c2ccc(CCN3CCc4ccccc4C3)cc2)cc1`: the IC50 is 10.8 µM (active) at Tumor necrosis factor, 10.6 µM (active) in [1] and > 20 µM (inactive) in the experiment on HEK293 [2].

The term CC50 denotes the concentration at which the toxic effect on the cells reaches its halfway point. For orientation: AC50 means the midpoint of the concentration-response curve, whichever way the signal moves. Regarding `COC(=O)c1ccc2c(c1)C(C)(C)C(/C=C/c1ccc(OC)c(OC)c1OC)=[N+]2C`, the IC50 in experiment [7] is 25.7 µM (active); in experiment [12], 21.4 µM (inactive); on Beta-galactosidase, > 66.6 µM (inactive); in [15], 1.93 µM (active); on Beta Lactamase it was 39.1 µM (inactive). Further, the EC50 was 14.4 µM (active) in the experiment on BJ [8]; 1.51 µM (active) in experiment [9]; 3.9 µM (inconclusive) in the experiment with BJ [10]; 3.71 µM (active) in experiment [11]; 1.3 µM (inconclusive) in the experiment with BJ [14]; 3.84 µM (active) in experiment [16]. In addition, the EC50 in experiment [17] is 5.04 µM (active). In addition, the CC50 in experiment [13] was 60.4 µM (active). Further, the AC50 in the experiment on INS1 was 2.09 µM (active).

As for `c1ccc(Cn2ncc3c(N4CCN(c5ccccc5)CC4)ncnc32)cc1`, the IC50 in [4] is 29.1 µM (inactive).

Take `COC(=O)Nc1nnc(-c2ccncc2)s1`: the half-maximal activity concentration (AC50) is 12.5 µM (active) at Trypsin, 5.84 µM (active) on CAAX prenyl protease 2 [20] and 9.58 µM (active) on CAAX prenyl protease 2 [21]. Moreover, the IC50 in experiment [18] and in experiment [19] was > 66 µM (inactive) throughout.
